The record followed here is US11691992B2 (Anacor Pharmaceuticals, Inc., priority 2017, dated 2023).

Common to all, as to assay type: cell-based
Test [1] concerns bloodstream-form trypanosome T. brucei brucei 427 strain. The test can be described thus: Trypanosoma brucei brucei high-throughput screening assay (resazurin). The note with it: 72 h, read-out: IC50: I Org. Growth T. brucei brucei SBRI 427, 3 d [uM]. As for the experimental part:
Example 105. Trypanosoma brucei brucei High-Throughput Screening Assay Procedure
All experiments were conducted with the bloodstream-form trypanosome T. brucei brucei 427 strain obtained from Seattle Biomedical Research Institute (Seattle, Wash.). Parasites were cultured in T-25 vented cap flasks and kept in humidified incubators at 37° C. and 5% CO2. The parasite culture media was complete HMI-9 medium containing 10% FBS, 10% Serum Plus medium and penicillin/streptomycin. To ensure log growth phase, trypanosomes were sub-cultured at appropriate dilutions every 2-3 days. Approximately 50 microliters of log phase cultures were diluted 1:10 in HMI-9 and 10 μL of the diluted culture was removed and counted using a hemocytometer to determine parasite concentration. Parasites were diluted by addition of an appropriate volume of HMI-9 to achieve a final parasite concentration of 2×10^5/mL. Compounds of the invention to be tested were serially diluted in DMSO and 0.5 μL added to 49.5 μL HMI-9 in triplicate 96-well plates using a Biomek NX liquid handler. Parasites from the diluted stock were added to each well (50 μL) using a Multidrop 384 dispenser to give a final concentration of 1.0×10^5/ml parasites in […] for DMSO. Trypanosomes were incubated with compounds for 72 hrs at 37° C. with 5% CO2. Resazurin (20 μL of 12.5 mg/ml stock) from Sigma-Aldrich was added to each well and plates were incubated for an additional 2-4 hrs. Assay plates were read using an EnVision plate reader at an excitation wavelength of 544 nm and emission of 590 nm. Triplicate data points were averaged to generate sigmoidal dose response curve and determine IC50 values using XLfit curve fitting software from IDBS (Guildford, UK).
In general terms: The colour change of resazurin is a common sign of viable cells or microbes.

Test [2] concerns TdTomato-modified T. cruzi (CL strain) in Vero cells. The test can be described thus: In vitro IC50 measurement of T. cruzi amastigote killing using TdTomato-modified T. cruzi (CL strain). The note with it: Trypanosoma cruzi, 72 h, fluorescence, read-out: IC50: I Org. amastigote Growth T. cruzi CL TdTomato, 3 d. The essentials:
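Vero cells were infected with tdTomato-expressing CL-strain parasites and dosed at 5 uM–5 nM. Fluorescence (ex 544/em 612 nm) was read at day 0 and again after 72 h at 37 °C, with day 0 values subtracted. IC50 and IC90 came from nonlinear regression.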

Test [3] concerns luciferase-expressing L. major parasites developing intracellularly inside RAW 264.7 macrophages. The test can be described thus: Leishmania major intracellular amastigote assay in RAW 264.7 macrophages (luciferase). As to conditions: RAW264.7, 96 hours, read-out: IC50: I Org. intracellular amastigote Growth L. major, 4 d. The essentials: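 RAW 264.7 macrophages infected overnight with luciferase-expressing L. major promastigotes, washed of extracellular parasites, then exposed to two-fold compound dilutions (final 0.5-10,000 ng/ml) for 96 h at 37° C, 5% CO2. Luciferin luminescence after 30 min; IC50 by sigmoidal variable-slope regression.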

The test system of test [4] is T. cruzi Tulahuen strain C2C4 containing the β-galactosidase (Lac Z) gene in rat skeletal myoblasts (L-6 cells). Kind of test: Trypanosoma cruzi C2C4 screening assay. The note with it: L6, 96 h, read-out: SCYNEXIS IC50: I Org. Growth T. cruzi Tulahuen C2C4 Lac Z, 4 d [uM]. How it is done: Example 113: Trypanosoma cruzi C2C4 Screening Assay Procedure
Rat skeletal myoblasts (L-6 cells) were seeded in 96-well microtiter plates at 2×10^3 cells/well in 100 μL RPMI 1640 medium with 10% FBS and 2 mM L-glutamine. After 24 h the medium was removed and replaced by 100 μL per well containing 5×10^3 trypomastigote forms of T. cruzi Tulahuen strain C2C4 containing the β-galactosidase (Lac Z) gene (Buckner, et al., Antimicrobial Agents and Chemotherapy, 40: 2592-2597 (1996)). After 48 h the medium was removed from the wells and replaced by 100 μL fresh medium with or without a serial drug dilution of the seven 3-fold dilution steps covering a range from 90 to 0.123 μg/mL. After 96 h of incubation the plates were inspected under an inverted microscope to assure growth of the controls and sterility. The substrate (50 μL) chlorophenol red-β-D-galactopyranoside (CPRG, Roche Diagnostics, Ltd) in 0.25% Nonidet P-40/PBS was added to all wells and a color reaction developed within 2-6 h which was read photometrically at 540 nm. Data were transferred into the graphic program Softmax Pro (Molecular Devices), which calculated IC50 values.

Molecules are shown by their SMILES. Bounds are passed on as bounds.

With `O=C(Nc1ccc2c(c1)B(O)OC2)c1cn(-c2ccccc2)nn1` [Example 66, N-(1-hydroxy-1,3-dihydrobenzo[c][1,2]oxaborol-6-yl)-1-phenyl-1H-1,2,3-triazole-4-carboxamide], the IC50 – broadly, the concentration that gives 50% inhibition – is 0.075 to 0.15 µM in test [1], less than 600 nM in test [2], no more than 1000 nM in test [3] and 0.06 to 0.1 µM in test [4].

Turning to `Cc1c(C(=O)Nc2ccc3c(c2)B(O)OC3)nnn1-c1ccc(F)cc1` [Example 86, 1-(4-fluorophenyl)-N-(1-hydroxy-1,3-dihydrobenzo[c][1,2]oxaborol-6-yl)-5-methyl-1H-1,2,3-triazole-4-carboxamide], the IC50 in test [1] fell in the range of 0.075 to 0.15 µM; in test [2] it was 600 to 1000 nM; in test [4] it was 0.11 to 1 µM.
